Results taken from article PMC8494816 (Scientific Reports, 2021).

How the values were obtained:
[1] = molecular target: P2X2/3 heterotrimeric receptors; design: method as in PMID 30902655; details: cited from earlier work
[2] = system: animal models; design: method as in PMID 30902655; details: cited from earlier work
[3] = system: patients with RUCC; details: cited from earlier work; for efficacy in treating RUCC patients: phase IIa setting
[4] = molecular target: P2X3 homotrimeric receptors; design: method as in PMID 30902655; details: cited from earlier work
[5] = molecular target: T1, homotrimeric hP2X4 receptor (Homo sapiens, UniProt Q99571); assay: Recombinant cell line selectivity assay
T1 sequence (Q99571 1-388): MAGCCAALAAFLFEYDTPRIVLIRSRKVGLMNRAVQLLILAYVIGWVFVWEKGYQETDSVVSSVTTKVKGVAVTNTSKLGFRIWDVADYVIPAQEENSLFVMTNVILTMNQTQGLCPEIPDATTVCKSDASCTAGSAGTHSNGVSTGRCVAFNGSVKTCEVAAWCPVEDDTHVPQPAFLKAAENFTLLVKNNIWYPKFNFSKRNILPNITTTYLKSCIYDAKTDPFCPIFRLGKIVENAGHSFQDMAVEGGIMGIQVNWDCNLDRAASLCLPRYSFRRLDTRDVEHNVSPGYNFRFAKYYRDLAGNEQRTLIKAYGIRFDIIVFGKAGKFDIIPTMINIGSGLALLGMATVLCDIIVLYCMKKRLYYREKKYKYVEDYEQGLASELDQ

[6] = Half-life in rats; details: rat, in vivo; data not shown
[7] = molecular target: T2, hP2X1 receptors (Homo sapiens, UniProt P51575); assay: Recombinant cell line selectivity assay
T2 sequence (P51575 1-399): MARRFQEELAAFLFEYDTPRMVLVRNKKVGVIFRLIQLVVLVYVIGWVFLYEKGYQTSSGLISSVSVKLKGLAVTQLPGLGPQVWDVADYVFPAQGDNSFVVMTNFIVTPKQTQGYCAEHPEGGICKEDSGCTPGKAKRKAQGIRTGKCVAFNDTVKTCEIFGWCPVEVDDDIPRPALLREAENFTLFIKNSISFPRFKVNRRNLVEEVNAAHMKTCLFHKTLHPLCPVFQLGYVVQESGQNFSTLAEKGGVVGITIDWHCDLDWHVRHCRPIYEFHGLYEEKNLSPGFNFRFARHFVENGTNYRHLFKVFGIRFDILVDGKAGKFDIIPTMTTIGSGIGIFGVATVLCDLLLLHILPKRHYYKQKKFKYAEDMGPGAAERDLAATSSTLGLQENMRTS

[8] = Half-life in humans; details: human, in vivo; data not shown
[9] = molecular target: T3, rP2X3 receptors (Rattus norvegicus, UniProt P49654); assay: cell-based
T3 sequence (P49654 1-397): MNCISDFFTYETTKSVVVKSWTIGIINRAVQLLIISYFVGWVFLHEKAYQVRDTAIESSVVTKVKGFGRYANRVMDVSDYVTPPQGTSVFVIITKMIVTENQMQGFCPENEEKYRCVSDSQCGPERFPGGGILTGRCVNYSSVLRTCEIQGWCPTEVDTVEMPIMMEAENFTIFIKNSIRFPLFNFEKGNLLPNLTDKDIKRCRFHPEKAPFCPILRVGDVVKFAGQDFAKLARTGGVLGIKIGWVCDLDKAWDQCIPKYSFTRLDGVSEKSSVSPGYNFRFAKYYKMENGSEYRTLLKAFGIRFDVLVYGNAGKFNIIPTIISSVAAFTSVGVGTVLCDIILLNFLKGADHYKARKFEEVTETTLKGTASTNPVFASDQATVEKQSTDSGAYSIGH
Protocol: (§1) Cells were maintained in Dulbecco’s Modified Eagle Medium (DMEM) media (Sigma) supplemented with 10% fetal bovine serum (FBS) (Sigma) in a humidified incubator with 5% CO2 at 37 °C.
(§2) P2X receptor-induced changes in intracellular calcium levels were monitored using the calcium-chelating dye, Fluo-4AM (Molecular Probes), quantitated with a fluorescence imaging plate reader (FLEX/FLIPR station; Molecular Devices, Sunnyvale, CA, USA). Cells expressing P2X3 or P2X2/3 receptors were plated at a density of 15,000 cells/well in collagen-coated 384-well plates approximately 20 h before assay.

[10] = molecular target: T4, native channels from DRG (predominately P2X3 receptors) (Rattus norvegicus, UniProt P49654); assay: Whole-cell patch-clamp assay in rat neurons (DRG); type: cell-based; details: female Sprague Dawley rat neurons, α,β-meATP 10 µM
T4 construct: native channels from both DRG (predominately P2X3 receptors) and nodose ganglia (NDG, predominately P2X2/3 receptors) rat tissues; from tissue; host or cells: primary neurons from dorsal root ganglia (L6–L4) of female Sprague Dawley rats
T4 sequence (P49654 1-397): T3 sequence (P49654 1-397)
Protocol: Experiments were performed under the whole-cell patch-clamp configuration at a holding potential of – 80 mV at room temperature. […] The cells were dissociated with Accumax, centrifuged at 1000 rpm for 3 min, re-suspended in manual patch-clamp buffer, and then plated in dishes at a density of ~ 50,000 cells/dish. The currents were recorded using HEKA amplifiers and Patchmaster software (HEKA Electronics). The bath solution contained 140 mM NaCl, 5 mM KCl, 1 mM CaCl2, 2 mM MgCl2, 25 mM HEPES, and 10 mM glucose, at pH 7.4. The intracellular solution contained 140 mM CsCl, 10 mM HEPES, and 10 mM BAPTA, at pH 7.0. […] The recordings were performed in a cumulative manner with 4- or 8-min incubation times per compound concentration. Hexokinase (50 U/mL) was added to reduce channel desensitization when recording human and rat P2X3 receptor neurons. A seal resistance of minimum 250 MΩ and a series resistance of less than 20 MΩ were applied as quality control parameters. The effect at each concentration of antagonist was determined according to the following equation: % response = (100 * Idrug)/Icontrol), where Icontrol was the peak current amplitude of the last agonist addition prior to incubation with the antagonist, and Idrug was the peak current amplitude in the presence of an antagonist. Each concentration of antagonist was tested on a minimum of three independent cells. […]

[11] = system: vaginal hyperalgesia in female Sprague Dawley rats; assay: Rat dyspareunia model (VMR to vaginal distension); details: vs vehicle
Protocol: The visceromotor response (VMR) to vaginal distension using an inflated vaginal balloon was determined by counting the number of abdominal muscle contractions via electromyography (EMG) in conscious animals as an objective measure of vaginal sensitivity. […] The VMR response to vaginal distension was measured at week five (on-drug) and week six (one week off-drug) post-implantation of uterine horn pieces.
The VMR to vaginal distension was used in conscious animals as an objective measure of vaginal sensitivity. […] In addition, to measure the VMR response, two Teflon-coated wire electrodes (AS632; Cooner Wire, USA) were sutured in the external oblique abdominal muscle, and then tunneled subcutaneously to be exteriorized at the base of the neck for future access. […] On the day of VMR assessment, a lubricated small balloon (embolectomy catheter 5F, 1 cm in length; IsoMed, France) was inserted into the mid-vaginal canal. […] The magnitude of the VMR at each vaginal distension test was quantified by counting manually the number of EMG spike bursts (or abdominal muscle contractions) per period of 40 s (= 0.1 mL distension volume). […] For each animal, the cumulative number of abdominal contractions was calculated and plotted against vaginal distension volume, and the corresponding AUC was calculated. […]
All data are expressed as mean (or mean ± SD), unless otherwise indicated.

[12] = molecular target: T5, homotrimeric hP2X7 receptor (Homo sapiens, UniProt Q99572); assay: Recombinant cell line selectivity assay
T5 sequence (Q99572 1-595): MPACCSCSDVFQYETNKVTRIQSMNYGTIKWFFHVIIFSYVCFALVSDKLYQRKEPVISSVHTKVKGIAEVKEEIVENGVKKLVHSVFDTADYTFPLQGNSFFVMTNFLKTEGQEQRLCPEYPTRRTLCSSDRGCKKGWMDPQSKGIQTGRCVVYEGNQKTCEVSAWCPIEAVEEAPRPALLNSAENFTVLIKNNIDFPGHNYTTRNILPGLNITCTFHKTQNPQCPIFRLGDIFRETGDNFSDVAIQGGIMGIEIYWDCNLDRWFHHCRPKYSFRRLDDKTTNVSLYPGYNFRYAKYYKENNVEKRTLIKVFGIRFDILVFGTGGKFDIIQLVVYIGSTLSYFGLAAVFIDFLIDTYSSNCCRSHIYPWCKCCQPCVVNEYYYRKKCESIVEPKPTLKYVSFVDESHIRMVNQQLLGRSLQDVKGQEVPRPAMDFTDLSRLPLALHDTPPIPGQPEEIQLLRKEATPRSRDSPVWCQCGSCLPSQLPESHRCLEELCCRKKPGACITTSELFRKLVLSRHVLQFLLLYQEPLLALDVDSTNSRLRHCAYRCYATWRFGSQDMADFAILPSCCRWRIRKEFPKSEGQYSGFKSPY

[13] = molecular target: T6, rP2X2/3 receptors (Rattus norvegicus, UniProt P49653+P49654); assay: FLIPR calcium flux assay, recombinant cells; type: cell-based
T6 sequence (P49654 1-397): T3 sequence (P49654 1-397)
T6 sequence (P49653 1-472): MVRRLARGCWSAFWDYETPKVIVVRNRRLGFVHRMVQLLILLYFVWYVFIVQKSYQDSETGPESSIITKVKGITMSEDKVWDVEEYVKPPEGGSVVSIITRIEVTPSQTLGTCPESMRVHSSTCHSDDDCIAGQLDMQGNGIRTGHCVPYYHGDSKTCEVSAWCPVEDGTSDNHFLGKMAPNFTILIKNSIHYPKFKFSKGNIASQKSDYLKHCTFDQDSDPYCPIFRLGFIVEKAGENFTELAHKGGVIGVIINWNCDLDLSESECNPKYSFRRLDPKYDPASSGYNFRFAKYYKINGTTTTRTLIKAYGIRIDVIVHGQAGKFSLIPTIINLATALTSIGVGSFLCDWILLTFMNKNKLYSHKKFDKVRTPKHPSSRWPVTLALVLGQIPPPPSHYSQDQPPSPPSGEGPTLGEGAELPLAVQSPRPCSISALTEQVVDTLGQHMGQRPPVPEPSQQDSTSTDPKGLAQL
Protocol: as §1, §2

[14] = system: CFA-induced mechanical hyperalgesia in male Sprague Dawley rats; assay: Rat CFA-induced mechanical hyperalgesia model (PAM, paw withdrawal threshold)
Protocol: Mechanical hyperalgesia was induced in 32 healthy male Sprague Dawley rats by injecting 25 µL of CFA (1 mg/mL) unilateral into the plantar surface of one hind paw. Mechanical hyperalgesia was measured using the Pressure Application Measurement apparatus (Ugo Basile, Comerio, Italy). Briefly, a linearly increasing pressure was applied to an area of ~ 50 mm^2 of the plantar side of the hind paw until a behavioral response (paw withdrawal) was observed, or until the pressure reached 1000-g force. The pressure at which the behavioral response occurred was recorded as the PWT. Both CFA-injected and contralateral PWTs were determined for each rat, in each treatment group, and at each time point of the study. […] All dose formulations were letter coded and administered to the animals by one technician not involved in conducting the behavioral PAM testing. All PAM measurements were performed by a second technician who was blinded to the treatments received by the animals.
All data are expressed as mean (or mean ± SD), unless otherwise indicated. Data were analyzed with either GraphPad Prism (v6.03, https://www.graphpad.com/scientific-software/prism/) or the Excel Fit software. For the rat hyperalgesia model, data were analyzed by computing the mean PWT for each treatment group, for CFA-injected and non-injected hind paws, and at each time point of the study. Mechanical hyperalgesia in vehicle control group was evaluated by carrying out an unpaired t-test between ipsilateral and contralateral paw values at each time point. The effect of the test compound on hyperalgesia was evaluated by performing a two-way repeated measures-ANOVA on ipsilateral paw values, followed by a Dunnett’s post-hoc test, provided that a main effect for treatment was detected. The effect of the test compound on contralateral response was evaluated following the same statistical procedure. […] A Grubbs’ test was also performed on individual values to reveal potential outliers. A p-value of < 0.05 was considered statistically significant.

[15] = system: neurogenic plasma extravasation in female Sprague Dawley rats; assay: Rat model of uterine neurogenic inflammation (mustard oil, Evans blue); type: in vivo; details: i.v. bolus 0.7 mg/kg then infusion 0.2 mg/kg/h, vs vehicle, P < 0.01
Protocol: In this model, neurogenic inflammation was induced in anesthetized female Sprague Dawley rats by injecting mustard oil, an algogenic and sensitizing irritant, into the left uterine horn. Uterine inflammation leads to neurogenic plasma extravasation in the skin of the lower abdomen, which can be visualized via the injection of Evans blue dye[17]; the degree of inflammation can then be quantified by counting the number of blue dots.
Mustard oil (10% solution in mineral oil) was then injected into the left uterine horn (0.25 mL/rat), and 2-h later, Evans blue was injected intravenously. After 30 min, animals were killed by cardiac flushing with sterile saline. Uterine neurogenic inflammation was assessed by counting the number of blue dots on the ventral and dorsal sides in the abdominal region as an indicator of cutaneous neurogenic plasma extravasation following chemical uterine inflammation, as previously described[17].
All data are expressed as mean (or mean ± SD), unless otherwise indicated. Data were analyzed with either GraphPad Prism (v6.03, https://www.graphpad.com/scientific-software/prism/) or the Excel Fit software. […] For the rat neurogenic inflammation and dyspareunia models, data were analyzed by computing the mean number of skin dots or AUCs, respectively, for each treatment group and at each time point of the study (where appropriate). […]

[16] = system: CFA-induced hyperalgesia in female C57BL/6 mice; assay: Mouse CFA-induced mechanical hyperalgesia model (von Frey); details: oral twice daily, 48 h after CFA
Protocol: In this model, mechanical hyperalgesia was induced in female C57BL/6 mice (n = 9) by injecting CFA into the plantar surface of one hind paw and assessed using von Frey filaments. The filaments were used to stimulate the hind paw, and a behavioral response was measured depending on the strength of the von Frey filament used (expressed in [g]). […] Compounds were administered orally, twice daily, starting one hour before CFA injection. […] Mechanical hyperalgesia was induced in female C57BL/6 mice by injecting 30 µL of undiluted CFA into the medial left plantar hind paw. […] Mice were placed individually in transparent Plexiglas enclosures set on a wire mesh floor for at least 60 min prior to testing. Mechanical response thresholds were determined using calibrated von Frey monofilaments applied to the plantar surface of hind paws. The simplified up-down method[69] was used to estimate the 50% withdrawal threshold of contralateral and ipsilateral paws. […] All dose formulations were letter coded and administered to the animals by a technician not involved in conducting the behavioral von Frey testing. All von Frey measurements were performed by a second experimenter who was blinded to the treatments received by the animals. Upon completion of the experiments, mice were euthanized by exposure to carbon dioxide.

CNC(=O)c1cc(F)c(-c2nc3cc(C)ccn3c2C[C@H]2CN(C(=O)OC)CCO2)c(F)c1 [BLU-5937]
IC50 [1]: > 24 µM
antitussive efficacy and taste disturbances in animal models [2]: antitussive efficacy with a lack of taste disturbances
primary endpoint in phase IIa study ([3]; subjects with RUCC): did not reach its desired primary endpoint
IC50 [4]: 25 nM

C[C@@H](Cn1c(=O)[nH]/c(=N\c2ccc(Oc3ccccn3)cc2)n(Cc2ccc(Cl)cc2)c1=O)C(=O)O [S-600918]
cough reduction and taste disturbance ([3]; patients with RUCC (n = 31)): reduce cough with a low incidence of taste disturbance
efficacy in treating RUCC patients [3]: shown efficacy

Cc1cnc(-c2cc(O[C@@H]3CCOC3)cc(C(=O)N[C@H](C)c3cnc(C(F)(F)F)nc3)c2)s1 [eliapixant]
IC50 [5]: 50 µM
half-life [6]: ~168 min
IC50 [7]: 50 µM
half-life [8]: > 1440 min
IC50 [9]: 4 nM
IC50 [10]: ~19 nM
vaginal hyperalgesia (AUC of cumulative abdominal contractions), 1 week off drug ([11]; 15 mg/kg oral twice daily weeks 4-5, 6 weeks post-implantation, P < 0.01): significantly decreased vaginal hyperalgesia
vaginal hyperalgesia (AUC of cumulative abdominal contractions), on drug ([11]; 15 mg/kg oral twice daily, 5 weeks post-implantation, P < 0.05): significantly decreased vaginal hyperalgesia
IC50 [12]: 50 µM
IC50 [13]: 23 nM
tolerability and taste-related adverse events ([3]; phase IIa and Ph IIb study in patients with RUCC): well tolerated with a low rate of mild taste-related adverse events
efficacy in treating RUCC patients [3]: shown efficacy
receptor occupancy corresponding to plasma exposures at which efficacy (reversal of hyperalgesia > 50%) was observed ([14]; rat CFA model, data not shown): 80%
effect on mechanical hyperalgesia (PWT), low dose ([14]; rat, oral 1 mg/kg, n = 8, P < 0.05): moderate and statistically significant at 2 h post-treatment
effect on mechanical hyperalgesia (PWT), medium dose ([14]; rat, oral 3 mg/kg, n = 8, 2, 4, 6 h, P < 0.05 to 0.0001): robust and significant at each time point of the study
effect on mechanical hyperalgesia (PWT), high dose ([14]; rat, oral 10 mg/kg, n = 8, 2, 4, 6 h, P < 0.05 to 0.0001): robust and significant at each time point of the study
effect on mechanical hyperalgesia (Paw Withdrawal Threshold) ([14]; rat, oral, 1, 3, 10 mg/kg, 24 h after CFA, 2, 4, 6 h post-dose): significantly reduced mechanical hyperalgesia in a dose-dependent manner
number of blue dots on the skin (neurogenic plasma extravasation) [15]: significantly reduced number of blue dots on the skin
minimal effective oral dose, reversal of hyperalgesia in CFA-injected paw [16]: 5 mg/kg

COc1cc(C(C)C)c(Oc2cnc(N)nc2N)cc1S(N)(=O)=O [gefapixant]
taste-related AEs, participants ([3]; latest phase III data, RUCC): 58–69%
